Patent US7335814B2, “Transgenic cells expressing glucosyltransferase nucleic acids” (The University of York, priority 2000, dated 2008)

Experiments:
recombinant GTase A233 = target: T1, recombinant GTase A233 (Arabidopsis thaliana, UniProt Q8W491); assay: Specific activity of recombinant GTase producing O-glucosides against lignin precursors (HPLC); format: biochemical; conditions: 30° C.; ND = not detected
T1 construct: made in house; host or cells: E. coli

recombinant GTase A42 = target: T2, recombinant GTase A42 (Arabidopsis thaliana, UniProt O23401); assay: Specific activity of recombinant GTase producing glucose ester against lignin precursors (HPLC); format: biochemical; conditions: 0.5 ml of potential substrates, 5 mM UDPG, 0.2 μg GTase, 200 μl, 20° C., 30 min
T2 construct: made in house; host or cells: E. coli
T2 sequence (O23401 1-479): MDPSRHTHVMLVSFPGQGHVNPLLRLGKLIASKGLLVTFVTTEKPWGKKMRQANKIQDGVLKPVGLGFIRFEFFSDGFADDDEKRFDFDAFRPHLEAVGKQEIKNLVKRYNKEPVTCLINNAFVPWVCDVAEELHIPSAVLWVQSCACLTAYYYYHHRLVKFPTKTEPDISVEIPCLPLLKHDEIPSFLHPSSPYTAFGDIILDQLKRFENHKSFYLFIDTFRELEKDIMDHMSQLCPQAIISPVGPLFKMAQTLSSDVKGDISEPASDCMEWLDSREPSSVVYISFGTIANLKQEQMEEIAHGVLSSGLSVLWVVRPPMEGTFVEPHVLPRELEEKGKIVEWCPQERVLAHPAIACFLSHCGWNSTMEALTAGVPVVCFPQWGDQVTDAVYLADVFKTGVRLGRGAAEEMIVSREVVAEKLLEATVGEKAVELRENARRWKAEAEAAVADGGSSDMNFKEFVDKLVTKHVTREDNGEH

UGT71C1 = target: T3, UGT71C1 (Arabidopsis thaliana, UniProt O82381); assay: UGT71C1 glucosyltransferase specific activity towards phenolic compounds (reverse-phase HPLC); format: biochemical; conditions: 1 mM phenolic compound, 5 mM UDP-glucose, 50 mM TRIS-HCl pH 7.0, 30° C., 30 min; mean of three replicates ± standard deviation
T3 construct: GST (N); made in house; host or cells: E. coli
T3 sequence (O82381 1-481): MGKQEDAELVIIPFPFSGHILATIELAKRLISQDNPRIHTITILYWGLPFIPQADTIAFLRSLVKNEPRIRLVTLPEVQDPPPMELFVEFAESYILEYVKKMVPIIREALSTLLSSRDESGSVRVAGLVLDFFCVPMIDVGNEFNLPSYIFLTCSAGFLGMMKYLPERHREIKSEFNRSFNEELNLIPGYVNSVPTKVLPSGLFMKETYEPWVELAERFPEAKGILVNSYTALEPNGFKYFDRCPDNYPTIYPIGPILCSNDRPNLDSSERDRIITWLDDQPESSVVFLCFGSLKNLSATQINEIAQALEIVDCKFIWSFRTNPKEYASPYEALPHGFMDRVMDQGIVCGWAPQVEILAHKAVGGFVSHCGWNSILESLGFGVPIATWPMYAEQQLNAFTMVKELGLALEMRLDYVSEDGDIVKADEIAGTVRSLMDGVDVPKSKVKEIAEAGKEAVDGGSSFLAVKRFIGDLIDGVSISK

recombinant GTase A320 = target: T4, recombinant GTase A320 (Arabidopsis thaliana, UniProt Q9LVF0); assay: Specific activity of recombinant GTase producing glucose ester against lignin precursors (HPLC); format: biochemical; conditions: 5 mM UDPG, 0.2 μg GTase, 200 μl, 20° C., 30 min
T4 construct: made in house; host or cells: E. coli
T4 sequence (Q9LVF0 1-496): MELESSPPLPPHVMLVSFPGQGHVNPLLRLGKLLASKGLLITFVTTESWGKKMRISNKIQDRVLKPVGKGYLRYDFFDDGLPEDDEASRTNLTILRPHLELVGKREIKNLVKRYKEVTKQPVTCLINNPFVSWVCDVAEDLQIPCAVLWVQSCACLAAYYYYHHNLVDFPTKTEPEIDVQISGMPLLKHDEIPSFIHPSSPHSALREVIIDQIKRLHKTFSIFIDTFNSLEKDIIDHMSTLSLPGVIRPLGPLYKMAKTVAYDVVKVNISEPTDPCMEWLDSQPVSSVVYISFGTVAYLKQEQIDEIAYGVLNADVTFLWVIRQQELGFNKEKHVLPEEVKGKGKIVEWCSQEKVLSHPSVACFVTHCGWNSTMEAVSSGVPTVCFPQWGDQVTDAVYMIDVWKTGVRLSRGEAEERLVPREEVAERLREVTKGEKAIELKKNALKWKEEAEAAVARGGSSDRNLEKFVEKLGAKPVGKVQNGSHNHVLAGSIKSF

recombinant GTase A911 = target: T5, recombinant GTase A911 (Arabidopsis thaliana, UniProt O22182); assay: Kinetic studies (Michaelis-Menten) on recombinant GTase producing glucose esters; conditions: glucose ester formation
T5 sequence (O22182 1-456): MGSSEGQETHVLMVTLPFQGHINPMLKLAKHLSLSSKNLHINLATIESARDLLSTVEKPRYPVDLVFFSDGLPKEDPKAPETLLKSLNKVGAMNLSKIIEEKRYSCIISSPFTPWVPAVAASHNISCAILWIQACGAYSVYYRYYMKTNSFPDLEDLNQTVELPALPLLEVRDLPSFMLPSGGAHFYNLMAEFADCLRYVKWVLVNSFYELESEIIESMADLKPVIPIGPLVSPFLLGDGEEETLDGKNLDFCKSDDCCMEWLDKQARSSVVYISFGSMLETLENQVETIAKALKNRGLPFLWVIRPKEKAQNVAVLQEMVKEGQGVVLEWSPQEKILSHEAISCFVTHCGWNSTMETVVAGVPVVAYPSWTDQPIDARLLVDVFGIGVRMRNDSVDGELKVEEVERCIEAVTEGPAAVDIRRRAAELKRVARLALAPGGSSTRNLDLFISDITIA

recombinant GTase A41 = target: T6, recombinant GTase A41 (Arabidopsis thaliana, UniProt Q5XF20); assay: as above; format: biochemical; conditions: glucose ester formation
T6 construct: made in house; host or cells: E. coli
T6 sequence (Q5XF20 7-490): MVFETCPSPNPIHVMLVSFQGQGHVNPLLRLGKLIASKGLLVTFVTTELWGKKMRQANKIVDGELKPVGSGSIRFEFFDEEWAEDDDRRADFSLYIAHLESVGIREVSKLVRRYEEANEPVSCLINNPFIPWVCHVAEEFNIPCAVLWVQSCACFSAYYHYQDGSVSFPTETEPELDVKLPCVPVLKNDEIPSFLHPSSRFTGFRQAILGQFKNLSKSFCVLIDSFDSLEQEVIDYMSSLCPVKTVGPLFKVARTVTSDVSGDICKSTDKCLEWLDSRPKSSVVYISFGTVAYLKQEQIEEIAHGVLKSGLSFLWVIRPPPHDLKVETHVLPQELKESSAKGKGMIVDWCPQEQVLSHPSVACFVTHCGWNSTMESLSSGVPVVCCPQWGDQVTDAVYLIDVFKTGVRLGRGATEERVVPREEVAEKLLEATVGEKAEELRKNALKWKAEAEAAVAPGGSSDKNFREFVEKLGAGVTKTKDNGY

recombinant GTase A43 = target: T7, recombinant GTase A43 (Arabidopsis thaliana, UniProt O23402); assay: Specific activity of recombinant GTase producing glucose ester against lignin precursors (HPLC); format: biochemical; conditions: 0.5 ml of potential substrates, 5 mM UDPG, 0.2 μg GTase, 200 μl, 20° C., 30 min
T7 construct: made in house; host or cells: E. coli

recombinant GTase A961 = target: T8, recombinant GTase A961 (Arabidopsis thaliana, UniProt O82381); assay: Specific activity of recombinant GTase producing O-glucosides against lignin precursors (HPLC); format: biochemical; conditions: 30° C.; ND = not detected
T8 construct: made in house; host or cells: E. coli
T8 sequence (O82381 1-481): T3 sequence (O82381 1-481)

SMILES	Specific activity of A233 (substrate converted to 4-O-glucoside) (recombinant GTase A233)	Specific activity of A42 (substrate converted to glucose ester) (recombinant GTase A42)	Specific activity (UGT71C1) (UGT71C1)	Specific activity of A320 (substrate converted to glucose ester) (recombinant GTase A320)	Vmax (A911) (recombinant GTase A911)	Vmax (A41) (recombinant GTase A41)	Specific activity of A43 (substrate converted to glucose ester) (recombinant GTase A43)	Specific activity of A961 (substrate converted to 4-O-glucoside) (recombinant GTase A961)
COc1cc(/C=C/C(=O)O)ccc1O [Ferulic acid, ferulic acid]	0.37 nkat/mg	15.63 nkat/mg	0 nkat/mg	0.54 nkat/mg	6.91 nkat/mg	11.35 nkat/mg	0.04 nkat/mg	
O=C(O)/C=C/c1ccc(O)cc1 [p-coumaric acid]	0.09 nkat/mg	4.69 nkat/mg	0 nkat/mg	0.05 nkat/mg			0.03 nkat/mg	0.01 nkat/mg
